In brackets after ≈: the same amount, converted by molar mass. Like-named read-outs stand apart in the source and are kept apart here.
Experiments:
Fungal ACC2 = Fungal ACC2 (UniProt Q00955); conditions: read-out: Fungal ACC2 (IC50, in vitro ACC2 inhibition)
Human ACC2 = Human ACC2 (Homo sapiens, UniProt O00763); assay: In vitro ACC2 inhibition assay (ADP-Glo), human ACC2; format: biochemical; conditions: 5 nM ACC2, 20 μM ATP, 20 μM acetyl-CoA
[1] = tested on: C. parapsilosis ATCC 22019; assay: Anti-Fungal Activity Assay (broth microtiter MIC), C. parapsilosis; format: cell-based, Candida parapsilosis; conditions: for MIC: Lodderomyces parapsilosis, ATCC22019, 48 h, read-out: MIC C. parapsilosis ATCC 22019
Procedure: (§1) Compounds of the present invention were evaluated in an Anti-Fungal Activity Assay. An exemplary procedure for the assay, which measures the susceptibility of various Candida species to anti-fungal compounds, follows. Compounds to be tested (including fluconazole and amphotericin B) were dissolved in DMSO to obtain a solution having a concentration of 1 mg/mL. […] All species were grown from frozen stock by directly plating on to freshly prepared Sabouraud Dextrose agar (BD, Difco) and incubated overnight in ambient air at 35° C. for 24 h. A direct suspension was prepared in RPMI 1640+MOPS (Lonza, Biowhittaker) by taking individual colonies from the overnight cultures using sterile swabs soaked in sterile saline. The concentration of the suspension was determined using pre-determined standard curves. […] Broth microtiter MIC challenge plates were prepared following CLSI guidelines (M27-A3, Vol. 28 No. 14). The original CLSI guidelines focused on reading Candida MICs after 48 h of incubation. As reading after only 24 h offers a clear advantage of patient care, QC limits are being established for all drugs at 24 h. That being said there are no known interpretive breakpoints for amphotericin B at 24 h and the current fluconazole interpretive breakpoints are based on a 48 h reading. The MIC breakpoints for the test compounds were recorded at 48 h, and for the soraphen the 24 h time-point was added. All MIC determinations were achieved by visually comparing the growth found in the antibiotic challenged wells to that of the growth control.

C. krusei ATCC 6258 = assay: Anti-Fungal Activity Assay (broth microtiter MIC), C. krusei; format: cell-based, Candida krusei; conditions: for MIC: Pichia kudriavzevii, ATCC6258, 48 h, read-out: MIC C. krusei ATCC 6258
Procedure: as §1

C. albicans ATCC 90028 = assay: Anti-Fungal Activity Assay (broth microtiter MIC), C. albicans; format: cell-based, Candida albicans; conditions: for MIC: Candida albicans, ATCC90028, 48 h, read-out: MIC C. albicans ATCC 90028
Procedure: as §1

[2] = 3 replicates, MIC recorded at 48 h

Fungal ACC2, sequence (Q00955 whole entry): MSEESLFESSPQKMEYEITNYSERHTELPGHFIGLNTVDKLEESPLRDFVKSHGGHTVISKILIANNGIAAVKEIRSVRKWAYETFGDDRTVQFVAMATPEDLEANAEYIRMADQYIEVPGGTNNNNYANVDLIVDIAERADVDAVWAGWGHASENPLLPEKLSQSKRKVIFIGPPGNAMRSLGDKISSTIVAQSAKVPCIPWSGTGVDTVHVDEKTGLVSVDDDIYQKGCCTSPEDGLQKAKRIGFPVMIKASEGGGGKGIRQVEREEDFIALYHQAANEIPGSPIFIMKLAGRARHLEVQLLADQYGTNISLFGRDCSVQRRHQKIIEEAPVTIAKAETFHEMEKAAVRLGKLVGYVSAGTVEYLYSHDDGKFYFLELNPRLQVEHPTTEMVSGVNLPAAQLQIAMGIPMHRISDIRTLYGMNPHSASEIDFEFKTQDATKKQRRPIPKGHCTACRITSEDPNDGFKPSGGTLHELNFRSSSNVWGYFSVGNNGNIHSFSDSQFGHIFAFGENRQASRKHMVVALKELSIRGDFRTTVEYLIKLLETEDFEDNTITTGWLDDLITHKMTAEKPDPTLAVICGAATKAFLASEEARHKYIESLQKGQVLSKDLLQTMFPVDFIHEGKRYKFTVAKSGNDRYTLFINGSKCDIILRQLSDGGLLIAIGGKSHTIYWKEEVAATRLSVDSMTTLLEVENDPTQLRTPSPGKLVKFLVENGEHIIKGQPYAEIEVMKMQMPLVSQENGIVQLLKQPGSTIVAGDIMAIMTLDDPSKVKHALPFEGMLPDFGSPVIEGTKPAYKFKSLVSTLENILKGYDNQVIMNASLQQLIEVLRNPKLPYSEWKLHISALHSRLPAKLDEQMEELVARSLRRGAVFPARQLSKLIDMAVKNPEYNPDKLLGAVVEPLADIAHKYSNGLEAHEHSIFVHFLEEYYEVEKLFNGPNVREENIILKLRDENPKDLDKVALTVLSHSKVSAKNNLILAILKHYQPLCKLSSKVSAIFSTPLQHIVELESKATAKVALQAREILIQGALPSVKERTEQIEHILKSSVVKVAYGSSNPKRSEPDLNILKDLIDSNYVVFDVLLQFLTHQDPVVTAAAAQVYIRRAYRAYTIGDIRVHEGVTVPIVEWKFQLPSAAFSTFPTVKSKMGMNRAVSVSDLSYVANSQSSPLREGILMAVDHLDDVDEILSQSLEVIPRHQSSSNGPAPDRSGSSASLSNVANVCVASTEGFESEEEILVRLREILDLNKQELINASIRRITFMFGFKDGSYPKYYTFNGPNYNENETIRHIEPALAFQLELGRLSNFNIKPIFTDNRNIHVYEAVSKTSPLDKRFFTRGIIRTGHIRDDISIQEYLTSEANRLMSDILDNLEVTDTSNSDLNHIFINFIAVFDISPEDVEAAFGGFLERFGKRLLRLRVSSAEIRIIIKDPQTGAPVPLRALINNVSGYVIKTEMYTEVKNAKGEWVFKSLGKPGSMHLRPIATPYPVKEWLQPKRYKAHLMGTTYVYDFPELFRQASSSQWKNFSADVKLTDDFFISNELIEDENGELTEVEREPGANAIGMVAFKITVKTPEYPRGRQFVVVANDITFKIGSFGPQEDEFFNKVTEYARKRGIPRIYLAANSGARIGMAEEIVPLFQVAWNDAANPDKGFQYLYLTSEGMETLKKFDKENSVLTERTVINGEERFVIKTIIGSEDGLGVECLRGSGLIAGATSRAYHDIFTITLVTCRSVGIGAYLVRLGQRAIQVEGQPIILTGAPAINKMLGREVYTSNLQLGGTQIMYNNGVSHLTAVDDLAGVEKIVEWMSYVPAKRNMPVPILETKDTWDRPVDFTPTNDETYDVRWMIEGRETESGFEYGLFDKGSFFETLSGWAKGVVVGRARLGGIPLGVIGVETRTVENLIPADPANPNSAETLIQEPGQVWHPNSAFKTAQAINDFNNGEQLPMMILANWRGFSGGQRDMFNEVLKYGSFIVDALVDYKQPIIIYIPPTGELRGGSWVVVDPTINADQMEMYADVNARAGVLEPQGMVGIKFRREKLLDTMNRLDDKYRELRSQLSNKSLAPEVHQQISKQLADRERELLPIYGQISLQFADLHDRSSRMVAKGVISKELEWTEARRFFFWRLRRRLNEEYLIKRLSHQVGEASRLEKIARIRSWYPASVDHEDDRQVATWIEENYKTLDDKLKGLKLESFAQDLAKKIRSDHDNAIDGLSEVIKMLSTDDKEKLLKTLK
Human ACC2, sequence (O00763 whole entry): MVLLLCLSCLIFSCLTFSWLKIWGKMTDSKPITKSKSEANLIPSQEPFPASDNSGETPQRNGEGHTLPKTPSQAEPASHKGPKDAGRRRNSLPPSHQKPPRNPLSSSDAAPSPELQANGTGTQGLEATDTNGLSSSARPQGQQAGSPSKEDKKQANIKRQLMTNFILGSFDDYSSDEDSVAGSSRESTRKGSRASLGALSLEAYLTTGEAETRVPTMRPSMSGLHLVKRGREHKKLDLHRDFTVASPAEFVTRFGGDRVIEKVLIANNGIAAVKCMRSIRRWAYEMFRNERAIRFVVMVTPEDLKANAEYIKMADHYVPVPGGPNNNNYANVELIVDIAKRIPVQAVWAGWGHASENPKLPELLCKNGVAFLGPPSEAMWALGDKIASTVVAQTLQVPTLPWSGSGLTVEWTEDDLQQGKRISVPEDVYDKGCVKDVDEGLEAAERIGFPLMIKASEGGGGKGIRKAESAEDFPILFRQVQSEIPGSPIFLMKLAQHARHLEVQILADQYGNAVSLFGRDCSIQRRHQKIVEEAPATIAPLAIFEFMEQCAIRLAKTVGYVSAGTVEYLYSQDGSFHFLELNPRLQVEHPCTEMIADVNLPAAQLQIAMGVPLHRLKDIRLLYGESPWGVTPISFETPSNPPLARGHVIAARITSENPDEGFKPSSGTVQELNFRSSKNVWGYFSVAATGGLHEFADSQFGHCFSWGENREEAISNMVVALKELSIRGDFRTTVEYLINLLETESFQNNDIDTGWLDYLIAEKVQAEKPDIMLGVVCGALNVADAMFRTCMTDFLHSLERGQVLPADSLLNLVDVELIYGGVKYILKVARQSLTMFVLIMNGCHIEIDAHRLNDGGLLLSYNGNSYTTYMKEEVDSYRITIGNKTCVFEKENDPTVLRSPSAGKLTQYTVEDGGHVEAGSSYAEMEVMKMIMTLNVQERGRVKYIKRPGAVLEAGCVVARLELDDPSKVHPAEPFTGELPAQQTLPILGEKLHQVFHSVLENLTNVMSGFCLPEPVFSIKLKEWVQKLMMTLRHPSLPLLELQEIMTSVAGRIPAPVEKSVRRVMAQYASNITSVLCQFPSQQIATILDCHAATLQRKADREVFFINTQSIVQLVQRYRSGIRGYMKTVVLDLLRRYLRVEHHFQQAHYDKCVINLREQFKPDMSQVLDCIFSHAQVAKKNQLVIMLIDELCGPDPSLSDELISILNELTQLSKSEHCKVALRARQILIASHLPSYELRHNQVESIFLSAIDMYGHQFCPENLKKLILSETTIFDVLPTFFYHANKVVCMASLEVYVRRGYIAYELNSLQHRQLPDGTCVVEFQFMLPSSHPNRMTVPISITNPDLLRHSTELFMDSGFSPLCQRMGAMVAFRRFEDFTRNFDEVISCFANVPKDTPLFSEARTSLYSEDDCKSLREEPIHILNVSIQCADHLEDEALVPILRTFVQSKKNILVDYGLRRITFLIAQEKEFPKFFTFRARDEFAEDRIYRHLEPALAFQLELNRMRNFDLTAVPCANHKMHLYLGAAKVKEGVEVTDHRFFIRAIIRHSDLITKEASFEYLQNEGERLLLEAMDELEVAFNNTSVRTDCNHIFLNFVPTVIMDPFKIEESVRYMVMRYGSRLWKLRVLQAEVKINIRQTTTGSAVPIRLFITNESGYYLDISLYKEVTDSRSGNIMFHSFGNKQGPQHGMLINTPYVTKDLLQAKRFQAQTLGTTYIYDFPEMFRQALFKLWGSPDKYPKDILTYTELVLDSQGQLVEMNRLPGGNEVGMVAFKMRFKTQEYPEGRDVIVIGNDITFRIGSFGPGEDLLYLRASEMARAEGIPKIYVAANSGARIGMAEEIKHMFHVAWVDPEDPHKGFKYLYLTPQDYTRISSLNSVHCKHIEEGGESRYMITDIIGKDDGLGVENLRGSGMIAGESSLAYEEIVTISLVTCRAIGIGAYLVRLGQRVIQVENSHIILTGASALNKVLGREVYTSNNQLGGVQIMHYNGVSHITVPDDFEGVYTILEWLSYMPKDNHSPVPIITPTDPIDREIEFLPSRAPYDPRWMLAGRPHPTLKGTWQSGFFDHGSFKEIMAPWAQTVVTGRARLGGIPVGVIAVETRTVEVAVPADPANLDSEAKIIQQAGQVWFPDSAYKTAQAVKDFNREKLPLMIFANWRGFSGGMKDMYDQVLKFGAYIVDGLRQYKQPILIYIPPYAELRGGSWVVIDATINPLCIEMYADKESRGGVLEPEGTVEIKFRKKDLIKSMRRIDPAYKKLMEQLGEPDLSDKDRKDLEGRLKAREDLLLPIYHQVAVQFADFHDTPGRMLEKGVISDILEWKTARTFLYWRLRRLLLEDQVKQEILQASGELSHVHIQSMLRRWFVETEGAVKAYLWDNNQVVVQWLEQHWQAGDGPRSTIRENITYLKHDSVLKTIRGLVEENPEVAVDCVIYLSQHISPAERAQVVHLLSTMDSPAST

Compound	IC50 (Fungal ACC2)	IC50 (Human ACC2)	further results
COc1ccc(F)cc1[C@H](Cn1c(=O)n(C2CCN(C)C2=O)c(=O)c2c(C)c(-n3nccn3)sc21)OC1CCOCC1 (stereo partly drawn) [Compound I-10, 1-((R)-2-(5-fluoro-2-methoxyphenyl)-2-((tetrahydro-2H-pyran-4-yl)oxy)ethyl)-5-methyl-3-(1-methyl-2-oxopyrrolidin-3-yl)-6-(2H-1,2,3-triazol-2-yl)thieno[2,3-d]pyrimidine-2,4(1H,3H)-dione]	0.7 to 2 nM	2 to 10 nM	MIC [1, 2]: 0.25 to 1 µg/mL (≈ 0.418 to 1.67 µM); MIC (C. krusei ATCC 6258; [2]): 0.25 to 1 µg/mL (≈ 0.418 to 1.67 µM)
COCCO[C@@H](Cn1c(=O)n(C2CCCN(C)C2=O)c(=O)c2c(C)c(-n3nccn3)sc21)c1cc(F)ccc1OC (stereo partly drawn) [Compound I-14, 1-((R)-2-(5-fluoro-2-methoxyphenyl)-2-(2-methoxy-ethoxy)ethyl)-5-methyl-3-(1-methyl-2-oxopiperidin-3-yl)-6-(2H-1,2,3-triazol-2-yl)thieno[2,3-d]pyrimidine-2,4(1H,3H)-dione]	2 to 10 nM	10 to 100 nM	
COc1ccccc1[C@H](Cn1c(=O)n([C@H]2CCCNC2=O)c(=O)c2c(C)c(-c3ncco3)sc21)OCCO [Compound I-60, 1-((R)-2-(2-hydroxyethoxy)-2-(2-methoxyphenyl)ethyl)-5-methyl-6-(oxazol-2-yl)-3-((S)-2-oxopiperidin-3-yl)thieno[2,3-d]pyrimidine-2,4(1H,3H)-dione]	0.7 to 2 nM	10 to 100 nM	
COc1ccc(F)cc1[C@H](Cn1c(=O)n([C@@H]2CCN(C(C)C)C2=O)c(=O)c2c(C)c(-n3nccn3)sc21)OC1CCOCC1 [Compound I-139, 1-((R)-2-(5-fluoro-2-methoxyphenyl)-2-((tetrahydro-2H-pyran-4-yl)oxy)ethyl)-3-((R)-1-isopropyl-2-oxopyrrolidin-3-yl)-5-methyl-6-(2H-1,2,3-triazol-2-yl)thieno[2,3-d]pyrimidine-2,4(1H,3H)-dione]		2 to 10 nM	MIC C. albicans ATCC 90028 (C. albicans ATCC 90028; [2]): C (provided an MIC of 2.1-4.0 μg/mL); MIC C. parapsilosis ATCC 22019 [1, 2]: B (provided an MIC of 1.1-2.0 μg/mL); MIC C. krusei ATCC 6258 (C. krusei ATCC 6258; [2]): B (provided an MIC of 1.1-2.0 μg/mL)
COCCO[C@@H](Cn1c(=O)n([C@]2(C)CCNC2=O)c(=O)c2c(C)c(-n3nccn3)sc21)c1cc(F)ccc1OC [Compound I-140, 1-((R)-2-(5-fluoro-2-methoxyphenyl)-2-(2-methoxy-ethoxy)ethyl)-5-methyl-3-((R)-3-methyl-2-oxopyrrolidin-3-yl)-6-(2H-1,2,3-triazol-2-yl)thieno[2,3-d]pyrimidine-2,4(1H,3H)-dione]	> 1000 nM	> 1000 nM	
COCCO[C@@H](Cn1c(=O)n([C@@]2(C)CCNC2=O)c(=O)c2c(C)c(-n3nccn3)sc21)c1cc(F)ccc1OC [Compound I-141, 1-((R)-2-(5-fluoro-2-methoxyphenyl)-2-(2-methoxyethoxy)ethyl)-5-methyl-3-((S)-3-methyl-2-oxopyrrolidin-3-yl)-6-(2H-1,2,3-triazol-2-yl)thieno[2,3-d]pyrimidine-2,4(1H,3H)-dione]	> 1000 nM	> 1000 nM	
COCCO[C@@H](Cn1c(=O)n([C@]2(C)CCN(C)C2=O)c(=O)c2c(C)c(-n3nccn3)sc21)c1cc(F)ccc1OC [Compound I-146, 3-((R)-1,3-dimethyl-2-oxopyrrolidin-3-yl)-1-((R)-2-(5-fluoro-2-methoxyphenyl)-2-(2-methoxyethoxy)ethyl)-5-methyl-6-(2H-1,2,3-triazol-2-yl)thieno[2,3-d]pyrimidine-2,4(1H,3H)-dione]	> 1000 nM	> 1000 nM	
COCCO[C@@H](Cn1c(=O)n([C@@]2(C)CCN(C)C2=O)c(=O)c2c(C)c(-n3nccn3)sc21)c1cc(F)ccc1OC [Compound I-148, 3-((S)-1,3-dimethyl-2-oxopyrrolidin-3-yl)-1-((R)-2-(5-fluoro-2-methoxyphenyl)-2-(2-methoxyethoxy)ethyl)-5-methyl-6-(2H-1,2,3-triazol-2-yl)thieno[2,3-d]pyrimidine-24(1H,3H)-dione]	> 1000 nM	> 1000 nM	
CCN1CC[C@H](n2c(=O)c3c(C)c(-n4nccn4)sc3n(C[C@H](OC3CCOCC3)c3cc(F)ccc3OC)c2=O)C1=O [Compound I-150, 3-((S)-1-ethyl-2-oxopyrrolidin-3-yl)-1-((R)-2-(5-fluoro-2-methoxyphenyl)-2-((tetrahydro-2H-pyran-4-yl)oxy)ethyl)-5-methyl-6-(2H-1,2,3-triazol-2-yl)thieno[2,3-d]pyrimidine-2,4(1H,3H)-dione]		2 to 10 nM	MIC (C. albicans ATCC 90028; [2]): 0.25 to 1 µg/mL (≈ 0.408 to 1.63 µM); MIC [1, 2]: 0.25 to 1 µg/mL (≈ 0.408 to 1.63 µM); MIC (C. krusei ATCC 6258; [2]): 0.075 to 0.24 µg/mL (≈ 0.122 to 0.392 µM)
CCN1CC[C@@H](n2c(=O)c3c(C)c(-n4nccn4)sc3n(C[C@H](OC3CCOCC3)c3cc(F)ccc3OC)c2=O)C1=O [Compound I-151]		2 to 10 nM	MIC (C. albicans ATCC 90028; [2]): 0.25 to 1 µg/mL (≈ 0.408 to 1.63 µM); MIC [1, 2]: 0.25 to 1 µg/mL (≈ 0.408 to 1.63 µM); MIC (C. krusei ATCC 6258; [2]): 0.075 to 0.24 µg/mL (≈ 0.122 to 0.392 µM)
COCCO[C@@H](Cn1c(=O)n([C@@H]2CCN(C)C2=O)c(=O)c2c(C)c(-n3nccn3)sc21)c1cc(F)ccc1OCC#N [Compound I-159, 2-(4-fluoro-2-((R)-1-(2-methoxyethoxy)-2-(5-methyl-3-((R)-1-methyl-2-oxopyrrolidin-3-yl)-2,4-dioxo-6-(2H2H-1,2,3-triazol-2-yl)-3,4-dihydrothieno[2,3-d]pyrimidin-1 (2H)-yl)ethyl)phenoxy)acetonitrile]		> 1000 nM	MIC (C. albicans ATCC 90028): 2.1 to 4 µg/mL (≈ 3.51 to 6.69 µM); MIC [1]: 2.1 to 4 µg/mL (≈ 3.51 to 6.69 µM); MIC (C. krusei ATCC 6258): 2.1 to 4 µg/mL (≈ 3.51 to 6.69 µM)
COCCO[C@@H](Cn1c(=O)n([C@H]2CCN(C)C2=O)c(=O)c2c(C)c(-n3nccn3)sc21)c1cc(F)ccc1OCC#N [Compound I-160, 2-(4-fluoro-2-((R)-1-(2-methoxyethoxy)-2-(5-methyl-3-((S)-1-methyl-2-oxopyrrolidin-3-yl)-2,4-dioxo-6-(2H-1,2,3-triazol-2-yl)-3,4-dihydrothieno[2,3-d]pyrimidin-1(2H)-yl)ethyl)phenoxy)acetonitrile]		10 to 100 nM	MIC (C. albicans ATCC 90028): 2.1 to 4 µg/mL (≈ 3.51 to 6.69 µM); MIC [1]: 2.1 to 4 µg/mL (≈ 3.51 to 6.69 µM); MIC (C. krusei ATCC 6258): 2.1 to 4 µg/mL (≈ 3.51 to 6.69 µM)
COc1ccc(F)cc1[C@H](Cn1c(=O)n([C@@H]2CCN(C)C2=O)c(=O)c2c(C)c(-n3nccn3)sc21)O[C@H]1C[C@H](O)C1 [Compound I-185, 1-((R)-2-(5-fluoro-2-methoxyphenyl)-2-((1r,3R)-3-hydroxycyclobutoxy)ethyl)-5-methyl-3-((R)-1-methyl-2-oxopyrrolidin-3-yl)-6-(2H-1,2,3-triazol-2-yl)thieno[2,3-d]pyrimidine-2,4(1H,3H)-dione]	0.7 to 2 nM	2 to 10 nM	
COc1ccc(F)cc1[C@H](Cn1c(=O)n([C@@H]2CCNC2=O)c(=O)c2c(C)c(-c3ncco3)sc21)O[C@H]1CC[C@@H](O)CC1 [Compound I-191, 1-((R)-2-(5-fluoro-2-methoxyphenyl)-2-(((1s, 4S)-4-hydroxycyclohexyl)oxy)ethyl)-5-methyl-6-(oxazol-2-yl)-3-((R)-2-oxopyrrolidin-3-yl)thieno[2,3-d]pyrimidine-2,4(1H,3H)-dione]	0.7 to 2 nM	0.7 to 2 nM	
COc1ccc(F)cc1[C@H](Cn1c(=O)n([C@H]2CCNC2=O)c(=O)c2c(C)c(-c3ncco3)sc21)O[C@H]1CC[C@@H](O)CC1 [Compound I-192, 1-((R)-2-(5-fluoro-2-methoxyphenyl)-2-(((1 s, 4S)4-hydroxycyclohexyl)oxy)ethyl)-5-methyl-6-(oxazol-2-yl)-3-((S)-2-oxopyrrolidin-3-yl)thieno[2,3-d]pyrimidine-2,4(1H,3H)-dione]	0.7 to 2 nM	2 to 10 nM	
COc1ccc(F)cc1[C@H](Cn1c(=O)n([C@@H]2CCN(C)C2=O)c(=O)c2c(C)c(-c3ncco3)sc21)O[C@H]1CC[C@@H](O)CC1 [Compound I-193, 1-((R)-2-(5-fluoro-2-methoxyphenyl)-2-(((1 s, 4S)-4-hydroxycyclohexyl)oxy)ethyl)-5-methyl-3-((R)-1-methyl-2-oxopyrrolidin-3-yl)-6-(oxazol-2-yl)thieno[2,3-d]pyrimidine-2,4(1H,3H)-dione]	0.7 to 2 nM	2 to 10 nM	
COc1ccc(F)cc1[C@H](Cn1c(=O)n([C@H]2CCN(C)C2=O)c(=O)c2c(C)c(-c3ncco3)sc21)O[C@H]1CC[C@@H](O)CC1 [Compound I-194, 1-((R)-2-(5-fluoro-2-methoxyphenyl)-2-(((1 s, 4S)-4-hydroxycyclohexyl)oxy)ethyl)-5-methyl-3-((S)-1-methyl-2-oxopyrrolidin-3-yl)-6-(oxazol-2-yl)thieno[2,3-d]pyrimidine-2,4(1H,3H)-dione]	0.7 to 2 nM	2 to 10 nM	
